Test results published in PMC9785144, “Metal Coordination and Biological Screening of a Schiff Base Derived from 8-Hydroxyquinoline and Benzothiazole” (Pharmaceutics, 2022).
Where two headings read alike, the source gives them in different places.

How the values were obtained:
[1] = UV-vis spectrophotometric titration for proton dissociation constants; assay type: physicochemical; conditions: for pKa: 60% (v/v) DMSO/H2O solvent mixture, 60% (v/v) DMSO/H2O, I = 0.10 M (KCl), 25 °C
Description: The pH-potentiometric titrations for the calibration of the electrode system were performed in 30% (v/v) and 60% (v/v) DMSO/H2O solvent mixtures using 0.10 M KCl background electrolyte at 25.0 ± 0.1 °C as described in our previous works.
A Thermo Evolution 220 spectrophotometer was used to record the UV-visible (UV-vis) spectra in the 260 to 750 nm window. The path length was varied between 2 and 50 mm. As a result of the limited solubility of the compounds in water, the spectrophotometric titrations were performed to determine the proton dissociation constants (pKa) of the ligand and its complex at 5 μM concentration using 5 cm path length. Due to the light sensitivity of the studied compounds, the samples were covered and were kept in the dark during the titrations. The starting sample volume was 50 mL. These titrations were performed in the pH range 2.0–12.5 (30% (v/v) DMSO/H2O) and 2.0–14.0 (60% (v/v) DMSO/H2O). Samples were deoxygenated by bubbling purified argon through them for approximately 10 min prior to the measurements and argon was also passed over the solutions during the spectrophotometric titrations. Calculation of the proton dissociation constants was performed with the computer program PSEQUAD [28].
Titrations were performed first in 30% (v/v) DMSO/H2O mixture due to the limited water solubility of the ligand. The sample was protected from light and, for a given portion of the sample, the UV-vis spectrum was recorded only once. […] Following this experiment, the titration was repeated in 60% (v/v) DMSO/H2O mixture (Figure 7), and no precipitation was found in the whole pH range (1.73−13.67) under this condition. However, only three deprotonation steps were observed, most probably because one of the deprotonation steps was already completed at the starting pH.
To elucidate the pKa assignment, 2-hydrazinobenzothiazole (considered as a fragment of the title ligand) was titrated under similar conditions to monitor the spectral changes during the deprotonation of the benzothiazole moiety.

[2] = test system: HCT-116, A375, CT-26, B16F10 and HaCaT cell lines; assay: Preliminary MTT antiproliferative screening on cell line panel; conditions: 20 and 40 μM, 48 h
Description: The MTT [32] and Guava ViaCount assays [33, 34] were used to assess cell viability in the absence (negative control) or presence of increasing concentrations of [Ni(HL)(acetate)], [Ru(HL)Cl(DMSO)] and 5-FU (positive control). Briefly, cells were plated at a concentration of 5 × 10^4 cells/mL in 96-well plates (200 μL/well) and cultured for 24 h in the culture conditions described above. Afterwards, supernatant was removed, and cells were incubated with [Ni(HL)(acetate)] and [Ru(HL)Cl(DMSO)] at concentrations ranging from 0.5 to 40 μM or from 0.5 to 100 μM for the 5-FU (positive control). Negative controls were cells maintained in complete culture medium. After 48 h, culture medium was discarded, cells were washed twice with PBS and 50 μL of MTT at 0.5 mg/mL in incomplete medium was added to all wells. After a 2 to 3 h incubation period at 37 °C and 5% CO2 environment, 100 μL DMSO was added to each well to solubilise the formazan crystals, and absorbance was measured at 570 nm using a microplate reader Model 680 (Bio-Rad, CA, USA). Between three to four independent experiments were carried out, with six replicates per condition. GraphPad Prism®8 (GraphPad Software, San Diego, CA, USA) was used to analyse cell proliferation and values were plotted and fit to a standard log dose-response curve. The IC50 values were calculated using Equation (2) [35]:log IC50 = log X1 + {[(Y1 − (Y0)/2)]/(Y1 − Y2)} × (log X2 − log X1)(2) where, Y0/2 is the half-cell density of the negative control; Y1 is the cell density above Y0/2; X1 is the concentration corresponding to Y1; Y2 is the cell density below Y0/2; X2 is the concentration corresponding to Y2. The IC50 was determined by linear interpolation between X1 and X2.
Thus, to evaluate the antiproliferative properties of the newly synthetised metal complexes, a preliminary screening was performed using human (HCT-116 and A375) and murine (CT-26 and B16F10) colon cancer and melanoma cell lines, respectively. […]

[3] = Light sensitivity in DMSO (UV-vis); assay type: physicochemical
Description: For the light sensitivity studies, DMSO solutions were prepared. The starting sample was separated equally for more portions, one was irradiated with diffuse light, while other portions were stored in the dark and measured only once.
The light sensitivity of H2L and its Ru-complex (as model metal compound) were tested by UV-vis spectrophotometry to further understand their behaviour. Samples were dissolved in DMSO and stored in the dark, while one portion was irradiated continuously by diffuse light. […] A relatively fast change is observed for the ligand in the first 1.5 h, and after that the spectrum has only minor changes (Figure 4A). […] Figure S16 depicts the spectral changes visible in Figure 4B. […] In the ligand, this may be due to a photoisomerisation process of the imine bond (Z/E isomers), which is quite common in hydrazones), but not in the Ru-complex, unless what is being observed in the complex solution is due to unbound ligand molecules.

[4] = test system: HCT-116 colon cancer cells; assay: MTT antiproliferative assay, HCT-116; assay type: cell-based, human; conditions: HCT-116, MTT, 48 h incubation
Description: (§1) Murine colon cancer CT-26 (ATCC® CRL-263™) cells were cultured in RPMI-1640, supplemented with 10% foetal bovine serum (FBS) and 100 IU/mL of penicillin and 100 μg/mL streptomycin (Gibco, Thermo Fisher Scientific, Waltham, MA, USA), hereafter designated as complete culture medium. Human colon cancer HCT-116 (ATCC® CCL-247™), human melanoma A375 (ATCC® CCL-1619™), murine melanoma B16F10 (ATCC® CCL-6475™) cells and human epidermal keratinocytes (HaCaT) were maintained in Dulbecco’s modified Eagle’s medium (DMEM) with high-glucose (4500 mg/L) (Sigma-Aldrich, St. Louis, MO, USA), supplemented with 10% FBS and 100 IU/mL of penicillin and 100 μg/mL streptomycin (Gibco, Thermo Fisher Scientific, Waltham, MA, USA), also designated as complete culture medium. The cell lines were maintained at 37 °C in a 5% CO2 environment and cells were trypsinised every 2–3 days when 80% confluence was reached.
(§2) Negative controls were cells maintained in complete culture medium.

[5] = Shake-flask n-octanol/buffer distribution coefficient (D7.4); assay type: physicochemical; conditions: n-octanol/buffered aqueous solution, 25 °C, read-out: logD7.4
Description: The distribution coefficient values (D7.4) of the compounds were determined by the traditional shake-flask method in n-octanol/buffered aqueous solution at pH 7.40 (10 mM HEPES buffer, in the absence or in the presence of 0.10 M KCl) at 25.0 ± 0.2 °C. The samples and stock solutions were protected from light until the spectrophotometric concentration determination. The ligand and complex were dissolved at 150 and 100 μM concentrations in n-octanol, respectively. n-Octanol was presaturated with the HEPES solution with the given KCl concentration. The aqueous solution and n-octanol ratio was 9:1 (instead of the usual 1:1 ratio due to the high lipophilicity of the compounds). […] After separation, UV-vis spectra of the compounds in the n-octanol phase were recorded and compared to the spectra of the n-octanol stock solution. D7.4 values were calculated as in the following Equation (1): (1) D7.4=Aoct,1/Aoct,0−Aoct,1×Vwater phase/Voctanol phase where Aoct,0 and Aoct,1 are the absorbance values of the n-octanol phase before and after separation, respectively, Vwater phase and Voctanol phase are the volumes of the two phases.
The distribution coefficients (D7.4) for H2L and the Ru-complex (as model complex) were determined using HEPES buffer (pH = 7.4) for the aqueous phase. Distribution was measured in the absence and presence of 100 mM KCl. […]

[6] = target: bovine serum albumin (BSA) (Bos taurus, UniProt P02769); assay: Albumin binding by fluorescence quenching and circular dichroism; conditions: BSA ca. 20–25 μM, bands centred at ca. 360 nm, compound 5 to 70 μM
Description: The concentration of BSA in the experiments was ca. 1.5 μM (in aqueous PBS). The fluorescence emission spectra were recorded between 310 and 575 nm, with λex = 295 nm. Successive additions of the complexes were done directly to the cuvette (optical path 1 cm) and the fluorescence emission spectra were recorded for each one under the same conditions. Blank assays for each sample, consisting in solutions with the same concentration of complex and no BSA, were recorded and subtracted to the corresponding emission spectra containing the fluorophore. The UV-vis spectra of the sample solutions were used to correct the emission spectra, minimizing inner filter and reabsorption phenomena interference.
The concentration of BSA in the experiments was ca. 20–25 μM (in aqueous PBS). The circular dichroism (CD) spectra are an average of three scan accumulations, recorded between 300 and 500 nm, with bandwidth of 1 nm and response of 2 s, using a scanning speed of 100 nm/min. Successive additions of the complexes stock solutions in DMSO were done directly to the cuvette (1 cm) and the CD spectra were recorded under the same conditions after 10 min equilibration. Induced CD spectra were obtained as the CD spectrum of compound-BSA mixture minus the CD spectrum of BSA alone and are expressed as ellipticity in millidegrees.

CT-26 colon cancer cells = assay: MTT antiproliferative assay, CT-26; assay type: cell-based, murine; conditions: CT-26, MTT, 48 h incubation
Description: as §1, §2

CT-26 cells = assay: Cell cycle analysis by PI flow cytometry, CT-26; assay type: cell-based, murine; conditions: CT-26, 24 h, sub-toxic concentrations
Description: (§3) To understand the potential effects of [Ni(HL)(acetate)] and [Ru(HL)Cl(DMSO)] on cell cycle progression, CT-26 and HCT-116 cells were used. Briefly, cells were plated at a density of 5 × 10^4 cells/mL in 6-well plates (2 mL) and allowed to grow for 24 h at 37 °C with 5% CO2. CT-26 cells were then incubated with [Ni(HL)(acetate)] or [Ru(HL)Cl(DMSO)] at concentrations of 5 and 10 μM or 10 and 20 μM, respectively. For HCT-116 cell line, the tested concentrations were 5 and 7.5 μM, and 7.5 and 12.5 μM for [Ni(HL)(acetate)] and [Ru(HL)Cl(DMSO)], respectively. The positive control group, 5-FU, was tested at 0.5 and 2 μM and 20 and 40 μM for CT-26 and HCT-116, respectively. Negative control group was constituted by cells in the presence of complete culture medium. After a 24 h incubation period, cells were collected by centrifugation at 850× g for 5 min at 4 °C, suspended in 500 µL of ice-cold PBS, and fixed with 500 µL ice-cold 80% ethanol (−20 °C), added drop-by-drop, under gentle mixing. Prior to the analysis, samples were kept at 4 °C for at least 16 h. […] The ModFit LT™ 5.0 software was used to analyse the data and the percentages of cells in each cell cycle phase was determined (Verity Software House, Topsham, ME, USA).

HCT-116 cells [7] = assay: Cell cycle analysis by PI flow cytometry, HCT-116; assay type: cell-based, human; conditions: HCT-116, 24 h, sub-toxic concentrations
Description: as §3

HCT-116 cells [8] = assay: Wound-healing migration assay, HCT-116; assay type: cell-based, human; conditions: HCT-116, 12.5 μM, at 22 h (control 50%)
Description: To assess cellular migration in the presence or absence of tested compounds, HCT-116 and CT-26 cells were plated at 1.5 × 10^5 and 3 × 10^5 cells/mL in a 12-well plate (1 mL/well) and were allowed to adhere and grow until reaching around 80–90% confluence. A sterile 10 μL pipette tip was used to wound the cell monolayer, followed by a washing step with PBS to remove debris. Then, cells were incubated with the tested compounds suspended in RPMI-1640 (CT-26) or DMEM media (HCT-116) supplemented with 2% FBS and 100 IU/mL of penicillin and 100 μg/mL streptomycin (Gibco, Thermo Fisher Scientific, Waltham, MA, USA), and hereafter designated as RPMI 2% and DMEM 2%, respectively. Under the above mentioned culture conditions, CT-26 cells were incubated with [Ni(HL)(acetate)] or [Ru(HL)Cl(DMSO)] at concentrations of 10 and 15 μM, respectively. […] The positive control, 5-FU, was tested at 1.5 and 40 μM for CT-26 and HCT-116, respectively. Negative control group was constituted by cells maintained in RPMI 2% (CT-26) and DMEM 2% (HCT-116). Images of the wound closure were taken beneath the stage of a Zeiss Axiovert 200 inverted microscope, using a 10× objective and a digital camera (CoolSNAP EZ, Photometrics, Huntington Beach, CA, USA) and recorded by the Metafluor Software at 0, 2, 4, 8, 18, 20 and 22 h following cell monolayer scratching (Molecular Devices, Sunnyvale, CA, USA). […]

Chain of bovine serum albumin (BSA) (P02769 25-607): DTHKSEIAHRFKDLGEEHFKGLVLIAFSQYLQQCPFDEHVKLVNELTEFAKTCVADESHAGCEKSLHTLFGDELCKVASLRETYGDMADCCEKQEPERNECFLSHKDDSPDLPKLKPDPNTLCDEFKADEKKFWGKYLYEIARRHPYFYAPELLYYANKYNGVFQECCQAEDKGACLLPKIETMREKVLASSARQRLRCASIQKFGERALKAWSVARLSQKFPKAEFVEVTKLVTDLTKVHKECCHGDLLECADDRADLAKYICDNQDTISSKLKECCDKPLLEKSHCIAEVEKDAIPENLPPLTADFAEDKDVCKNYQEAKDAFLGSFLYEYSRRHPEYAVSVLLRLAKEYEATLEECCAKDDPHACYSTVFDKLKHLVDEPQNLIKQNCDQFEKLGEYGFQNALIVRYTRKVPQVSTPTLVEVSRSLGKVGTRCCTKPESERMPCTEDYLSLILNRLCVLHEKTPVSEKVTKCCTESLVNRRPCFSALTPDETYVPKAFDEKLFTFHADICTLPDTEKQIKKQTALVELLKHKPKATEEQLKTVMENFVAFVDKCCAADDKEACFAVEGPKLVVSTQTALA

NNc1nc2ccccc2s1 [2-Hydrazinobenzothiazole, 2-hydrazinobenzothiazole, reference compound]
pKa ([1]; read-out: pKa2): 3.35 ± 0.03 | pKa ([1]; read-out: pKa3): 10.35 ± 0.03 | pKa ([1]; read-out: pKa4): 12.86 ± 0.03 | antiproliferative / cytotoxic effect in preliminary screening [2]: no effect

Oc1cccc2ccc(/C=N/Nc3nc4ccccc4s3)nc12 [H2L, (E)-2-((2-(benzo[d]thiazol-2-yl)Hydrazono)Methyl)Quinolin-8-ol]
light sensitivity ([3]; irradiated continuously by diffuse light): strong light sensitivity | spectral changes in the dark ([3]; stored in the dark, 4 days of monitoring): only a small change | IC50 ([4]; Homo sapiens): 3 ± 0.8 µM | logD at 4 h ([5]; pH 7.4, n-octanol/10 mM HEPES pH 7.4, 0 mM KCl): 2.8 | logD at 4 h ([5]; pH 7.4, n-octanol/10 mM HEPES pH 7.4, 100 mM KCl): 3 | induced CD bands with BSA [6]: high intensity induced CD bands | pH range of precipitation ([1]; 30% (v/v) DMSO/H2O, 5 μM): 3.8−11.0 | pKa ([1]; read-out: pKa2): 1.99 ± 0.03 | pKa ([1]; read-out: pKa3): 9.09 ± 0.04 | pKa ([1]; read-out: pKa4): 12.99 ± 0.04 | IC50 (CT-26 colon cancer cells; Mus musculus, CT26): 1.8 ± 0.4 µM | antiproliferative / cytotoxic effect in preliminary screening [2]: high cytotoxicity

O=Cc1ccc2cccc(O)c2n1 [HQ2CHO, 2-carbaldehyde-8-hydroxyquinoline]
antiproliferative / cytotoxic effect in preliminary screening [2]: cytotoxicity against the human melanoma and colon cancer cell lines

CC(=O)[O][Ni][O]c1cccc2ccc(C=NNc3nc4ccccc4s3)nc12 [[Ni(HL)(acetate)]]
IC50 [4]: 8.6 ± 2 µM | induced CD bands with BSA [6]: high intensity induced CD bands | cell cycle arrest (CT-26 cells): arrested cell cycle at S phase | cell cycle arrest (HCT-116 cells [7]): no such effect | IC50 (CT-26 colon cancer cells): 11 ± 2.3 µM | maximum wound closure (HCT-116 cells [8]): 32%
